Laboratory results published in patent US20200131132A1, “FARNESOID X RECEPTOR AGONISTS AND USES THEREOF” (Metacrine, Inc., priority 2017, published 2020).

molecular target: T1, hFXR (Homo sapiens, UniProt Q96RI1); assay: In Vitro FXR Assay (TK); type: cell-based; details: CV-1 cells transfected with hFXR, hRXR, TK-ECRE-luc and pCMX-YFP; compounds incubated 18 hrs; luminescence
T1 construct: expressed in transfected cells; host or cells: CV-1 cells
T1 sequence (Q96RI1 1-486): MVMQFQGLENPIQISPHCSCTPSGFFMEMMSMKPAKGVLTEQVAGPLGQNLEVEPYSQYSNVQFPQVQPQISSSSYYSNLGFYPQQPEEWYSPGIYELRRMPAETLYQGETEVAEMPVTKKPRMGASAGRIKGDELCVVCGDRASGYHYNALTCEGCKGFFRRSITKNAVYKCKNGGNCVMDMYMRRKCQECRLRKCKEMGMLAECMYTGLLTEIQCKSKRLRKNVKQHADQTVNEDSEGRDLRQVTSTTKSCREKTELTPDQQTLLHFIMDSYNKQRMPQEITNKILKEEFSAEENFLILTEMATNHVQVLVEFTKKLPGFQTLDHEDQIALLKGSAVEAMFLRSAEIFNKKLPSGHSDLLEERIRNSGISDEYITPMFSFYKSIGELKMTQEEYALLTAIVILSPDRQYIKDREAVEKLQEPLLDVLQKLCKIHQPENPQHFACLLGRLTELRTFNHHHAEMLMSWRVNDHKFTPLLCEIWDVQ
T1 sequence (P19793 1-462 partner): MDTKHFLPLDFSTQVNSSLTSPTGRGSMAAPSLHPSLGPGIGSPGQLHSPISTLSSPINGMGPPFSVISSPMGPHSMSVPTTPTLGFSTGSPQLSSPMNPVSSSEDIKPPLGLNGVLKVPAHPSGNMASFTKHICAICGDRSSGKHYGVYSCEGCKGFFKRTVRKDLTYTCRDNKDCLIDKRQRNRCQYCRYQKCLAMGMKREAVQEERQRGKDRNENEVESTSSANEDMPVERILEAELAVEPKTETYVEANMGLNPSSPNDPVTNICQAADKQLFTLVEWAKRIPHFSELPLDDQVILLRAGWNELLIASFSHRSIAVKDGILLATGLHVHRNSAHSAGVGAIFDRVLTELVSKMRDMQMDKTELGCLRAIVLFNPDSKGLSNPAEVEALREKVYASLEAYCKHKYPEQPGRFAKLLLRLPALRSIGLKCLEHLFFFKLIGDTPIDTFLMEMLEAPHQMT
Procedure: CV-1 cells were seeded at a density of 2,000,000 cells in a T175 flask with DMEM+10% charcoal double-stripped FBS and incubated at 37° C. in 5% CO2 for 18 h (O/N).
After 18 h of incubation, the medium in the T175 flask was changed with fresh DMEM+10% charcoal super-stripped serum. In a polypropylene tube, 2500 μL OptiMEM (Life Technologies, Cat #31985-062) was combined with expression plasmids for hFXR, hRXR, TK-ECRE-luc and pCMX-YFP. The tube was then briefly vortexed and incubated at room temperature for 5 minutes. Transfection reagent (X-tremeGENE HP from Roche, Cat #06 366 236 001) was added to the OptiMEM/plasmid mixture vortexed and incubated at room temperature for 20 minutes. Following incubation, the transfection reagent/DNA mixture complex was added to cells in the T175 flask and the cells were incubated at 37° C. in 5% CO2 for 18 h (O/N).
Compounds were serially diluted in DMSO and added to transfected CV-1 cells. The cells were then incubated for 18 hrs. The next day cells were lysed and examined for luminescence.

| SMILES | EC50 [µM] |
| --- | --- |
| COc1ccc(-c2ccc(CN(C(=O)CC(C)(C)C)c3nccc4cc(OC(C)CO)ccc34)cc2)cc1C (stereo not drawn) [Compound 31, N-(6-((1-Hydroxypropan-2-yl)oxy)isoquinolin-1-yl)-N-((4′-methoxy-3′-methyl-[1,1′-biphenyl]-4-yl)methyl)-3,3-dimethylbutanamide] | ≤ 1 |
| COc1ccc(-c2ccc(CN(C(=O)CC(C)(C)C)c3nccc4cc(OC5CCN(C(=O)OC(C)(C)C)CC5)ccc34)cc2)cc1C [Compound 8.05, tert-Butyl 4-((1-(N-((4′-methoxy-3′-methyl-[1,1′-biphenyl]-4-yl)methyl)-3,3-dimethylbutanamido)isoquinolin-6-yl)oxy)piperidine-1-carboxylate] | > 10 |
| COc1ccc(-c2ccc(CN(C(=O)CC(C)(C)C)c3nccc4cc(OC5CCN(C)CC5)ccc34)cc2)cc1C [Compound 8.06, N-((4′-Methoxy-3′-methyl-[1,1′-biphenyl]-4-yl)methyl)-3,3-dimethyl-N-(6-((1-methylpiperidin-4-yl)oxy)isoquinolin-1-yl)butanamide] | > 10 |
| CCOc1ccc2c(N(Cc3ccc(-c4ccc(OC)c(C)c4)cc3)C(=O)CC(C)(C)C)nccc2c1 [Compound 11, N-(6-Ethoxyisoquinolin-1-yl)-N-((4′-methoxy-3′-methyl-[1,1′-biphenyl]-4-yl)methyl)-3,3-dimethylbutanamide] | ≤ 1 |
| COc1ccc(-c2ccc(CN(C(=O)CC(C)(C)C)c3nccc4cc(O)ccc34)cc2)cc1C [Compound 7, N-(6-Hydroxyisoquinolin-1-yl)-N-((4′-methoxy-3′-methyl-[1,1′-biphenyl]-4-yl)methyl)-3,3-dimethylbutanamide] | ≤ 1 |
| COC(=O)COCc1ccc2c(N(Cc3ccc(-c4ccc(OC)c(C)c4)cc3)C(=O)CC(C)(C)C)nccc2c1 [Compound 9.02, Methyl 2-((1-(N-((4′-methoxy-3′-methyl-[1,1′-biphenyl]-4-yl)methyl)-3,3-dimethylbutanamido)isoquinolin-6-yl)methoxy)acetate] | ≤ 1 |
| COc1ccc(-c2ccc(CN(C(=O)CC(C)(C)C)c3nccc4cc(N5CCCC5)ccc34)cc2)cc1C [Compound 6.08, N-((4′-Methoxy-3′-methyl-[1,1′-biphenyl]-4-yl)methyl)-3,3-dimethyl-N-(6-(pyrrolidin-1-yl)isoquinolin-1-yl)butanamide] | ≤ 1 |
| COc1ccc(-c2ccc(CN(C(=O)CC(C)(C)C)c3nccc4cc(/C=C\CO)ccc34)cc2)cc1C [Compound 22, (Z)-N-(6-(3-Hydroxyprop-1-en-1-yl)isoquinolin-1-yl)-N-((4′-methoxy-3′-methyl-[1,1′-biphenyl]-4-yl)methyl)-3,3-dimethylbutanamide] | ≤ 1 |
| COC(=O)COc1ccc2c(N(Cc3ccc(-c4ccc(OC)c(C)c4)cc3)C(=O)CC(C)(C)C)nccc2c1 [Compound 9.01, Methyl 2-((1-(N-((4′-methoxy-3′-methyl-[1,1′-biphenyl]-4-yl)methyl)-3,3-dimethylbutanamido)isoquinolin-6-yl)oxy)acetate] | 1 to 10 |
| COc1ccc(-c2ccc(CN(C(=O)CC(C)(C)C)c3nccc4cc(N5CCC(O)C5)cnc34)cc2)cc1C (stereo not drawn) [Compound 6.2, N-(3-(3-Hydroxypyrrolidin-1-yl)-1,7-naphthyridin-8-yl)-N-((4′-methoxy-3′-methyl-[1,1′-biphenyl]-4-yl)methyl)-3,3-dimethylbutanamide] | ≤ 1 |
| COc1ccc(-c2ccc(CN(C(=O)CC(C)(C)C)c3nccc4cc(OCCCO)ccc34)cc2)cc1C [Compound 8, N-(6-(3-Hydroxypropoxy)isoquinolin-1-yl)-N-((4′-methoxy-3′-methyl-[1,1′-biphenyl]-4-yl)methyl)-3,3-dimethylbutanamide] | ≤ 1 |
| COc1ccc(-c2ccc(CN(C(=O)CC(C)(C)C)c3nccc4cc(NCCO)ccc34)cc2)cc1C [Compound 6.02, N-(6-((2-Hydroxyethyl)amino)isoquinolin-1-yl)-N-((4′-methoxy-3′-methyl-[1,1′-biphenyl]-4-yl)methyl)-3,3-dimethylbutanamide] | ≤ 1 |
